“And” between values parts separate entries of the source, which are not always exact repeats. Equal values may be shown once.
Legend:
eIF2Bα [1] = target: T1, eIF2Bα (Homo sapiens, UniProt Q14232); assay: MIDAS (mass spectrometry integrated with equilibrium dialysis) metabolite binding screen; details: for MIDAS result (enrichment in the protein chamber / hit status): eIF2Bα2, 50 μM per metabolite pool, 40 h dialysis at 4 °C
T1 construct: made in house; host or cells: E. coli BL21(DE3)
T1 sequence (Q14232 1-305): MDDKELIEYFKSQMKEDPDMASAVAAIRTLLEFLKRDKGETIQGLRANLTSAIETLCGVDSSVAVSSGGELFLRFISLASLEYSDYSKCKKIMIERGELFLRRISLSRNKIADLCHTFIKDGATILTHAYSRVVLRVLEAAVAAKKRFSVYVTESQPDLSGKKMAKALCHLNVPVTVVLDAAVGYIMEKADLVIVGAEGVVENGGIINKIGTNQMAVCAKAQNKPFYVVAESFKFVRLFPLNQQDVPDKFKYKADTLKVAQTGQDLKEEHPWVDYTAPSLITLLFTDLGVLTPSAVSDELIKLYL
Outline: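 Hits called at Storey q < 0.1 on z-scores of PCA-corrected log2 fold change between protein and metabolite chambers, quantified by FIA-MS in triplicate.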

eIF2B = target: T2, eIF2B (Homo sapiens, UniProt P49770+Q14232+Q9UI10); assay: eIF2B GEF activity assay, unbiased metabolite screen (Bodipy-FL-GDP release); assay type: biochemical; details: 10 μM metabolite
T2 construct: made in house; host or cells: eIF2Bα: E. coli BL21(DE3)
Experimental: Bodipy-FL-GDP-loaded eIF2 was used as a substrate for recombinant eIF2B. The assay was performed in 384-well plates. Reactions were read on a SpectraMax i3x plate reader (Molecular Devices) using the instrument’s Softmax Pro software with the following parameters: plate temperature = 25 °C; excitation wavelength = 485 nm (15 nm width); emission wavelength = 535 nm (25 nm width); read duration = 30 min at 45 s intervals. Data were analyzed in Prism. GDP release half-lives were calculated by fitting single-exponential decay curves.
For unbiased screening, MIDAS metabolite libraries at 10 mM stock concentration were dispensed into wells of the assay plate using an Echo Acoustic Liquid Handler (Labcyte). […] A single well was run for each metabolite. […] For targeted experiments with HEK293T lysates, the following conditions were used: 50 nM Bodipy-FL-GDP-loaded eIF2, 0.1 mM GDP, 1 mg/ml BSA, 0.1 or 0.3 mg/ml lysates.

eIF2Bα [2] = target: T1, eIF2Bα; assay: Differential scanning fluorimetry (Protein Thermal Shift), eIF2Bα Tm; assay type: binding; details: individual replicates Rep 1-4, control without metabolite about 64.1
Experimental: The effect of metabolite binding on eIF2Bα Tm was assessed using the Protein Thermal Shift assay (Thermo Fisher), following manufacturer’s instructions. Briefly, reaction conditions for each 20 μL reaction were: 1.1 μg (1.5 μM) of eIF2Bα, 5 μl Thermal Shift buffer, 1X Thermal Shift dye, and metabolites in dose response. Reactions were run in 384-well format on a QuantStudio 6 Flex instrument (Thermo Fisher). The resulting melt curves were analyzed using Protein Thermal Shift Software, and eIF2Bα Tms for each condition were calculated by fitting to the Boltzmann function.

[3] = MIDAS metabolite binding screen with eIF2Bα, sheet "eIF2Ba"
[4] = MIDAS screen, sheet eIF2Ba, metabolites screened in pools 1-4, p-value and q-value given

T2 sequence (P49770 whole entry, one chain of several): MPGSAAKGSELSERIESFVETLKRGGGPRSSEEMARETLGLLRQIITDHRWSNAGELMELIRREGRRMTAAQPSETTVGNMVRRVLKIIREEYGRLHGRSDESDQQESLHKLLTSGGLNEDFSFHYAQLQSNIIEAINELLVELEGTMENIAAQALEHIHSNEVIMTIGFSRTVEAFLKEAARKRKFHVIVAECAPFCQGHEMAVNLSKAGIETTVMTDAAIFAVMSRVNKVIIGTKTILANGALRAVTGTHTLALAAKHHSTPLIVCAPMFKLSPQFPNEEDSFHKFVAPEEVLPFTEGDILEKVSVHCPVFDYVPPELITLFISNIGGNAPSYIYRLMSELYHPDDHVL
T2 sequence (Q9UI10 whole entry, one chain of several): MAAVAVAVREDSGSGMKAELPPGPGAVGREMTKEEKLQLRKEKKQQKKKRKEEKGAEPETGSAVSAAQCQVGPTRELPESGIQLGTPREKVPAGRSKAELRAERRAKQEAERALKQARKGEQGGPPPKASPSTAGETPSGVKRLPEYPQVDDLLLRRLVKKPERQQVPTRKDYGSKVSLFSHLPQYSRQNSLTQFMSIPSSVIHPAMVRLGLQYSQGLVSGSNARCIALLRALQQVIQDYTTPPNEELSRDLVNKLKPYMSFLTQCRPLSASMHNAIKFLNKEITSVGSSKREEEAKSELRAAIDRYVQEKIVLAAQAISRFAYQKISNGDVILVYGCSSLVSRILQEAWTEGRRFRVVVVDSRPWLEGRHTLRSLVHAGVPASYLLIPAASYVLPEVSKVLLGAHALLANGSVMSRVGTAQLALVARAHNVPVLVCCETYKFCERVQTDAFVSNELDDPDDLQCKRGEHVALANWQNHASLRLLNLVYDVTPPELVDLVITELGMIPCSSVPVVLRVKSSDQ
T2 sequence (Q9NR50 whole entry partner, one chain of several): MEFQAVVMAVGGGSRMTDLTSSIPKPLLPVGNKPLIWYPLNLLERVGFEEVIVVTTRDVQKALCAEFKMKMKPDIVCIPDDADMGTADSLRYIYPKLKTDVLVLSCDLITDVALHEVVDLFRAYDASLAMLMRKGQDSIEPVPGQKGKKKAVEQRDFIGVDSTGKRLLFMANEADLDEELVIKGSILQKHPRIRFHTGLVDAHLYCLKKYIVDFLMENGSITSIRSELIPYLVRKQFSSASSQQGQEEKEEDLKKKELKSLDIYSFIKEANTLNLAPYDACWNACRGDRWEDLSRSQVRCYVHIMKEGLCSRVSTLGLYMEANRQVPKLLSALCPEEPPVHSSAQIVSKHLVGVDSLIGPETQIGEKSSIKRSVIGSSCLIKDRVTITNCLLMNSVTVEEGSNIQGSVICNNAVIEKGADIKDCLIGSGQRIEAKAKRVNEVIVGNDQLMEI
T2 sequence (Q13144 whole entry partner, one chain of several): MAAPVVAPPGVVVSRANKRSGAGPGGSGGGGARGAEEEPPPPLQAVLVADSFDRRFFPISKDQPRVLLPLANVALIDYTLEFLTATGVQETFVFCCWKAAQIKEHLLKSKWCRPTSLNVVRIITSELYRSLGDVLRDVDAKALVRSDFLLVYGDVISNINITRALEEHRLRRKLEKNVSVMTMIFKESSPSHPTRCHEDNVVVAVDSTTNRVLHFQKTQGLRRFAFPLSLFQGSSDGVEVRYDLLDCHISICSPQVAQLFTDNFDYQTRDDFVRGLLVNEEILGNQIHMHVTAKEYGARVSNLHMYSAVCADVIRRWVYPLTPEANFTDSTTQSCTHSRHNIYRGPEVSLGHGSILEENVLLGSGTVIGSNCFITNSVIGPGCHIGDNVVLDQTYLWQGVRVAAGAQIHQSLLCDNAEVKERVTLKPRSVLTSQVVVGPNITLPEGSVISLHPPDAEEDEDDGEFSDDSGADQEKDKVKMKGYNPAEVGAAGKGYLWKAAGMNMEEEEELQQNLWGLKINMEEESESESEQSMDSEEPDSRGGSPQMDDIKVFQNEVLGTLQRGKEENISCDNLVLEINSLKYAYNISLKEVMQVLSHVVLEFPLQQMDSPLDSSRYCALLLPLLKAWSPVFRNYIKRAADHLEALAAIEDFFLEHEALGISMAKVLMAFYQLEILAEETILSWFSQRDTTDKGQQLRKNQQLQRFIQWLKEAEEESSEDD

Row | Compound | log2(corrected fold change) (eIF2Bα [1]; [3]) | Tm of eIF2Bα (eIF2Bα [2]; 0.33 mM metabolite) | Tm of eIF2Bα (eIF2Bα [2]; 1 mM metabolite) | log2(corrected fold change) (eIF2Bα [1]; [4]) | also measured
1 | Nc1ncnc2c1ncn2[C@@H]1O[C@H](COP(=O)(O)OP(=O)(O)O)[C@@H](O)[C@H]1O [ADP, Adenosine diphosphate] | -0.09804 |  |  |  | effect on eIF2B GEF activity in the screen (eIF2B): a hit in this functional assay screen
2 | O=C[C@H](O)[C@H](O)[C@H](O)COP(=O)(O)O [Ribose-5-phosphate] |  | 63.6082 °C and 63.1309 °C and 63.9035 °C and 63.9145 °C | 65.8453 °C and 64.5885 °C and 66.0863 °C and 66.0043 °C |  | Tm of eIF2Bα (eIF2Bα [2]; 3.3 mM metabolite): 65.9356 °C and 65.2316 °C and 66.3491 °C and 65.7067 °C; Tm of eIF2Bα (eIF2Bα [2]; 10 mM metabolite): 67.199 °C and 66.1831 °C and 67.4737 °C and 67.2666 °C
3 | O=C(COP(=O)(O)O)[C@@H](O)[C@H](O)[C@H](O)COP(=O)(O)O [Fructose-1,6-bisphosphate] |  | 64.6451 °C and 64.2202 °C and 65.137 °C and 65.0552 °C | 65.6845 °C and 64.643 °C and 66.191 °C and 66.0945 °C |  | Tm of eIF2Bα (eIF2Bα [2]; 3.3 mM metabolite): 65.4601 °C and 64.9088 °C and 65.6023 °C and 65.9064 °C; Tm of eIF2Bα (eIF2Bα [2]; 10 mM metabolite): 67.1254 °C and 66.1581 °C and 67.3047 °C and 67.21 °C
4 | O=c1ccn([C@@H]2O[C@H](COP(=O)(O)O)[C@@H](O)[C@H]2O)c(=O)[nH]1 [UMP, Uridine monophosphate] |  | 64.124 °C and 63.8726 °C and 64.7063 °C and 64.4005 °C | 65.4937 °C and 64.6631 °C and 66.2688 °C and 66.0835 °C | 1.855 | Tm of eIF2Bα (eIF2Bα [2]; 5 mM metabolite): 67.0947 °C and 66.2443 °C and 67.297 °C and 67.2174 °C; MIDAS result (enrichment in the protein chamber / hit status) (eIF2Bα [1]): a strong hit in MIDAS; effect on eIF2B GEF activity in the screen (eIF2B): a hit in this functional assay screen
5 | Glucose-6-phosphate |  | 64.7198 °C and 64.0494 °C and 65.062 °C and 64.7755 °C | 65.3152 °C and 64.2994 °C and 65.8081 °C and 65.8236 °C |  | Tm of eIF2Bα (eIF2Bα [2]; 3.3 mM metabolite): 65.2749 °C and 64.6195 °C and 65.7728 °C and 65.1105 °C; Tm of eIF2Bα (eIF2Bα [2]; 10 mM metabolite): 66.5112 °C and 65.3473 °C and 66.6482 °C and 66.6125 °C
6 | N[C@@H](Cc1ccc(O)cc1)C(=O)O [L-tyrosine] |  | 64.527 °C and 64.3045 °C and 63.9825 °C and 63.5986 °C | 65.9465 °C and 65.8614 °C and 65.2637 °C and 64.606 °C |  | Tm of eIF2Bα (eIF2Bα [2]; 5 mM metabolite): 66.2946 °C and 66.2026 °C and 66.1461 °C and 65.4309 °C; MIDAS result (enrichment in the protein chamber / hit status) (eIF2Bα [1]): most enriched metabolite identified
7 | N[C@H]1C(O)O[C@H](COP(=O)(O)O)[C@@H](O)[C@@H]1O (stereo partly drawn) [D-Glucosamine 6-phosphate] | -0.005422 |  |  |  | 
8 | Phosphatidic Acid |  |  |  | 0.1983 | 
9 | CN(C)c1ncnc2nc[nH]c12 [Dimethylaminopurine] |  |  |  | -0.08009 | 
10 | C/C(=C/C(=O)O)C(=O)O [Citraconic acid] |  |  |  | 0.0972 | 
11 | Nc1nc2c(ncn2[C@@H]2O[C@H](COP(=O)(O)OP(=O)(O)O[C@H]3O[C@H](CO)[C@@H](O)[C@H](O)[C@@H]3O)[C@@H](O)[C@H]2O)c(=O)[nH]1 [Guanosine diphosphate mannose] | 0.001828 |  |  |  | 
12 | CC(=O)NC1C(OP(=O)(O)OP(=O)(O)OCC2OC(n3ccc(=O)[nH]c3=O)C(O)C2O)OC(CO)C(O)C1O (centres unmarked) | -0.0409 |  |  |  | 
13 | O=C1OC(C(O)CO)C(=O)C1=O (centres unmarked) [Dehydroascorbic acid] | 0.003317 |  |  |  | 
14 | Cytidine monophosphate |  |  |  | 1.354 | 

Reference: PMC8187479, “Sugar phosphate activation of the stress sensor eIF2B” (Nature Communications, 2021)
